{"source": "the NIST ThermoML archive (doi:10.1016/j.jct.2018.09.029)", "assay": "Boiling temperature at pressure P", "conditions": "82.6 kPa; Liquid; Ebulliometric method (Recirculating still)", "note": "Numbers after ± are expanded uncertainties."}
{"smiles": "O", "note": "[water]", "values": [{"measurement": "Boiling temperature at pressure P", "value": "94.41 ± 0.63", "unit": "°C"}]}
